Our source for the IC50 values is PMC2790557 (Biochemistry, 2009).

Each structure is given as a SMILES string.

The term IC50 denotes the midpoint of a concentration-inhibition curve.

The experiment concerns the target CK2 (casein kinase II).

On to `OC[C@H]1O[C@@H](n2cnc3cc(Cl)c(Cl)cc32)[C@H](O)[C@@H]1O` [DRB, 5,6-Dichloro-1-(β-D-ribofuranosyl)benzimidazole], for which the IC50 is approximately 10 µM.
